Results reported in patent publication US8865913B2, “Crystalline forms and processes for their preparation” (BIAL-Portela & C.A., S.A, priority 2010, dated 2014).

Experiments:
Assay type in all cases: physicochemical
[1] = Thermogravimetric analysis (TGA); settings: sample no. 79
Description: 4. Thermogravimetric Analysis (TGA)
TG analyses were performed using a TA Instruments 2950 and Q5000 thermogravimetric analyzer. Temperature calibration was performed using nickel and Alumel™. Each sample was placed in an aluminum pan and inserted into the TG furnace. The furnace was heated under a nitrogen purge.
The method code for the thermogram (shown by the list of Figures in the “Brief Description of the Figures” section above) is an abbreviation for the start and end temperature as well as the heating rate; e.g., 25-350-10 means “from 25° C. to 350° C., at 10° C./min”.

[2] = Correlated thermogravimetric-infrared analysis (TG-IR); settings: sample no. 79
Description: 5. Correlated Thermogravimetric—Infrared Analysis (TG-IR)
Thermogravimetric infrared (TG-IR) analysis was performed on a TA Instruments thermogravimetric (TG) analyzer model 2050 interfaced to a Magna-IR 560® Fourier transform infrared (FT-IR) spectrophotometer (Thermo Nicolet) equipped with an Ever-Glo mid/far IR source, a potassium bromide (KBr) beamsplitter, and a mercury cadmium telluride (MCT-A) detector. The FT-IR wavelength verification was performed using polystyrene, and the TG calibration standards were nickel and Alumel™. The sample was placed in a platinum sample pan, and the pan was inserted into the TG furnace. The TG instrument was started first, immediately followed by the FT-IR instrument. The TG instrument was operated under a flow of helium at 90 and 10 cc/min. for the purge and balance, respectively. The furnace was heated under […] at a rate of 20° C./minute to a final temperature of 250° C. IR spectra were collected approximately every 32 seconds for approximately 13 minutes. Each IR spectrum represents 32 co-added scans collected at a spectral resolution of 4 cm^−1. Volatiles were identified from a search of the High Resolution Nicolet Vapor Phase spectral library.

[3] = X-ray powder diffraction (XRPD)
Description: 3. X-ray Powder Diffraction (XRPD)
Selected XRPD patterns were collected with an Inel XRG-3000 diffractometer. An incident beam of Cu Kα radiation was produced using a fine-focus tube and a parabolically graded multilayer mirror. Prior to the analysis, a silicon standard (NIST SRM 640c) was analyzed to verify the Si 111 peak position. A specimen of the sample was packed into a thin-walled glass capillary, and a beam-stop was used to minimize the background from air. Diffraction patterns were collected in transmission geometry using Windif v. 6.6 software and a curved position-sensitive Equinox detector with a […] of 120°.
Selected XRPD patterns were collected using a Bruker D8 DISCOVER diffractometer and Bruker's General Area-Detector Diffraction System (GADDS, v. 4.1.20). An incident microbeam of Cu Kα radiation was produced using a long, fine-focus tube (40 kV, 40 mA), a parabolically graded multilayer mirror, and a 0.5 mm double-pinhole collimator. Prior to the analysis, a silicon standard (NIST SRM 640c) was analyzed to verify the Si 111 peak position. […]
XRPD patterns for microplate samples were collected using a Bruker D8 DISCOVER diffractometer and Bruker's General Area-Detector Diffraction System (GADDS, v. 4.1.20). […] Prior to the analysis, a silicon standard (NIST SRM 640c) was analyzed to verify the Si 111 peak position. […]

Structure (SMILES): Fc1cc(F)c2c(c1)C[C@@H](n1c(CCNCc3ccccc3)c[nH]c1=S)CO2 [Form B, 1-[(3R)-6,8-difluoro-3,4-dihydro-2H-1-benzopyran-3-yl]-1,3-dihydro-5-[2-[(phenylmethyl)amino]ethyl]-2H-imidazole-2-thione]
- TGA sharp weight loss (onset) [1]: Sharp weight loss at ~254 °C (onset)
- TGA weight loss ([1]; between ~138° C. and ~190° C.): ~4.7 wt % loss between ~138 °C and ~190 °C
- TG-IR (IR) identification of volatile [2]: (IR): Consistent with loss of ethyl acetate.
- XRPD result ([3]; sample no. 48 (crystallized from tetrahydrofuran/ethyl acetate)): Crystalline consistent with Form B of compound 2
- XRPD result ([3]; sample no. 79 (organic vapor stress of amorphous material in ethyl acetate)): Crystalline consistent with Form B of compound 2
